The text below walks through data of patent US20160137630A1, “INDUCTION OF GATA2 BY HDAC1 AND HDAC2 INHIBITORS” (ACETYLON PHARMACEUTICALS, INC., priority 2014, published 2016).

Molecules are shown by their SMILES. Read-outs that look alike come from different tables or passages of the source.

For experiment [1], the target named is HDAC2 (Homo sapiens, UniProt Q92769). Briefly: in vitro biochemical HDAC inhibition assay. Particulars: read-out: IC50 HDAC2.
For experiment [2], the target named is HDAC1 (Homo sapiens, UniProt Q13547). Briefly: in vitro biochemical HDAC inhibition assay. The note with it: read-out: IC50 HDAC1.
HDAC1, sequence (Q13547 whole entry): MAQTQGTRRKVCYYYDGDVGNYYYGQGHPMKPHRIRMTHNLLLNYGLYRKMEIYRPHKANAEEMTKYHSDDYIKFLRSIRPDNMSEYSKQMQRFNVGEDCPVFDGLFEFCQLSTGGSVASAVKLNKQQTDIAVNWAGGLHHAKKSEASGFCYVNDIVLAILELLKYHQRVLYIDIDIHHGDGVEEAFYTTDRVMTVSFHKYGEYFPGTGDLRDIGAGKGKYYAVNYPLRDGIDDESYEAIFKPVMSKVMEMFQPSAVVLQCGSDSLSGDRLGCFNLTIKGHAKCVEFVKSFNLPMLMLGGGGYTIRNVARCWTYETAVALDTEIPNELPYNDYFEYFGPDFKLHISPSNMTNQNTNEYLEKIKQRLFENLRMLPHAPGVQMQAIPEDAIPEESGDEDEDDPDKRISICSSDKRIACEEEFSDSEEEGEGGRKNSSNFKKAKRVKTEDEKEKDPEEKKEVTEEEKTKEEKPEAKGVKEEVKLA
Experiment [3] concerns Gata2 mRNA. In words: induction of Gata2 mRNA in erythroid progenitors by HDAC1,2 inhibitors. It is filed as cell-based, human. The note with it: erythroid progenitors differentiated 3 days with compound; FIG. 2A-C. The text has this:
Human bone marrow derived CD34+ cells were expanded for 7 days as described by Sankaran et al., Science, vol. 322(5909), pp. 1839-42 (2008). Cells were then differentiated, in the presence of the indicated compound (i.e., Compounds 001, Compound Y, Compound 2005, Compound 2004, Compound 2003), for 3 days in media supporting erythropoiesis (Hu et al., “Isolation and functional characterization of human erythroblasts at distinct stages: implications for understanding of normal and disordered erythropoiesis in vivo”, Blood, vol. 121(16), pp. 3246-53 ([…])). FIG. 2A, FIG. 2B, and FIG. 2C each represents an experimental series performed on different days and with different donor cells.

Experiment [4] concerns the target HDAC3 (Homo sapiens, UniProt O15379). Briefly: in vitro biochemical HDAC inhibition assay. Particulars: for IC50: read-out: IC50 HDAC3.

HDAC3, sequence (O15379 whole entry): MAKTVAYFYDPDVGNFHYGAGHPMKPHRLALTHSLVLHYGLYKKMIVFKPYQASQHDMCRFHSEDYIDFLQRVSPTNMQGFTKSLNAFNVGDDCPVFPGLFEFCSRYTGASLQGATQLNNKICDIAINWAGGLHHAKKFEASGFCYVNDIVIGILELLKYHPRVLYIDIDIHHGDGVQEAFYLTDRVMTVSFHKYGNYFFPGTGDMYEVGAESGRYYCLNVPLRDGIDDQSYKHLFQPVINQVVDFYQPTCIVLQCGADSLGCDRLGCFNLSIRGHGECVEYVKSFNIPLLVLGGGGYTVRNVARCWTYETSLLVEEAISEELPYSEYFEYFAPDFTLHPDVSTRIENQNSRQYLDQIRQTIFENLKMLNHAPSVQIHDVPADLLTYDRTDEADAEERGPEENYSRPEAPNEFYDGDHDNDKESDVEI
HDAC3, sequence (Q9Y618 395-489 partner limits assumed): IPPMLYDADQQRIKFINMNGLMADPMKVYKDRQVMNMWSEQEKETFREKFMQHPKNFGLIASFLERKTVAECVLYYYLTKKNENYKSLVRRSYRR
HDAC2, sequence (Q92769 whole entry): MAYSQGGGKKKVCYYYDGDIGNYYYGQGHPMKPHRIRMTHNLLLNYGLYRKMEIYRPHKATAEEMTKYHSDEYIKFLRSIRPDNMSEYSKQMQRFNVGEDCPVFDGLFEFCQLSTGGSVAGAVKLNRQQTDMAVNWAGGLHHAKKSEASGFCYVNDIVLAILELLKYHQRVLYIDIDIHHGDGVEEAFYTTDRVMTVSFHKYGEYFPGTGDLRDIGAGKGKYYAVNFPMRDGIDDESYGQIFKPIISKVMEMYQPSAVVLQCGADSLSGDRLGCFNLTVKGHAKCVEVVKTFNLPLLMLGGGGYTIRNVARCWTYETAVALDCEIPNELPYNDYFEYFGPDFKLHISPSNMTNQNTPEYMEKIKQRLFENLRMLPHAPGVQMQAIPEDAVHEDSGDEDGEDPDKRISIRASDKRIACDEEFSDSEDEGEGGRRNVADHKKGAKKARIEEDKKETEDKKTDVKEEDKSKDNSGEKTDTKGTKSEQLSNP

With `Nc1ccc(-c2ccccc2)cc1NC(=O)/C=C/c1ccc(N2CCNCC2)c(C2CC2)c1` [Compound 2001], the IC50 in experiment [1] (Table 4) was 32.3 nM; in experiment [2] (Table 4), 27.3 nM; in experiment [4] (Table 4), 218 nM. In addition, the “Gata2 mRNA” value in experiment [3] is reported as “induction of Gata2 mRNA”.
The matching figures for `Nc1ccc(-c2cccs2)cc1NC(=O)/C=C/c1ccc(N2CCNCC2)c(C2CC2)c1` [Compound 2002]: 21.9 nM, 14 nM, 136 nM and “induction of Gata2 mRNA”.
For `CN1CCN(c2ccc(C(=O)Nc3cc(-c4ccccc4)ccc3N)cc2C2CC2)CC1` [Compound 2003], the IC50 in experiment [1] (Table 4) amounted to 79.1 nM; in experiment [2] (Table 4), 85 nM; in experiment [4] (Table 4), 491 nM. Further, the “Gata2 mRNA” value in experiment [3] is “induction of Gata2 mRNA”.
Consider `Nc1ccc(-c2cccs2)cc1NC(=O)c1ccc(N2CCNCC2)cc1C1CC1` [Compound 2004], for which the IC50 in experiment [1] (Table 4) is 8.9 nM; in experiment [2] (Table 4), 11.2 nM; in experiment [4] (Table 4), 207 nM. Besides, the “Gata2 mRNA” value in experiment [3] is recorded as “induction of Gata2 mRNA”.
`CC1(Nc2ncc(C(=O)Nc3cc(-c4cccs4)ccc3N)cn2)CCN(C(=O)N2CCCC2)CC1` [Compound 2005]: the IC50 came to 14.1 nM in experiment [1] (Table 4), 10.2 nM in experiment [2] (Table 4) and 673 nM in experiment [4] (Table 4). Also, the “Gata2 mRNA” value in experiment [3] is listed as “induction of Gata2 mRNA”.
Taken in the same sequence, the figures for `Nc1ccc(-c2cccs2)cc1NC(=O)c1cnc(NC2CCN(C(=O)N3CCOCC3)CC2)nc1` [Compound 2007] were 55.5 nM, 14.9 nM, 284 nM and “induction of Gata2 mRNA”.
Turning to `CC1(Nc2ncc(C(=O)Nc3cc(-c4cccs4)ccc3N)cn2)CCN(C(=O)N2CCNCC2)CC1` [Compound 2008], the figures for the IC50 in experiment [1] (Table 4), in experiment [2] (Table 4) and in experiment [4] (Table 4) were 25.9 nM, 7.27 nM and 195 nM, respectively. Further, the “Gata2 mRNA” value in experiment [3] is “induction of Gata2 mRNA”.
As to `CC1(Nc2ccc(C(=O)Nc3cc(-c4ccncc4)ccc3N)cc2)CCN(C(=O)N2CCOCC2)CC1` [Compound 2010], the results for the IC50 in experiment [1] (Table 4), in experiment [2] (Table 4) and in experiment [4] (Table 4) were 16.8 nM, 12 nM and 511 nM, respectively. Also, the “Gata2 mRNA” value in experiment [3] is “induction of Gata2 mRNA”.
Take `Nc1ccc(-c2ccncc2)cc1NC(=O)c1ccc2c(c1)cc(C1CC1)n2CCN1CCOCC1` [Compound Y]: in experiment [3], the “Gata2 mRNA” value is “induction of Gata2 mRNA”.
Regarding `Nc1ccc(-c2ccccc2)cc1NC(=O)c1ccc2c(cnn2CCN2CCOCC2)c1` [N-(4-amino-[1,1′-biphenyl]-3-yl)-1-(2-morpholinoethyl)-1H-indazole-5-carboxamide], the IC50 in experiment [1] (Table 2) was 19 nM; in experiment [2] (Table 2), 7.4 nM; in experiment [4] (Table 2) it was 344 nM.
On to `Nc1ccc(-c2ccccc2)cc1NC(=O)c1cnc2c(ccn2CCN2CCOCC2)c1` [N-(4-amino-[1,1′-biphenyl]-3-yl)-1-(2-morpholinoethyl)-1H-pyrrolo[2,3-b]pyridine-5-carboxamide], for which the IC50 in experiment [1] (Table 2) was found to be 31 nM; in experiment [2] (Table 2), 6.8 nM; in experiment [4] (Table 2) it was 373 nM.
Taken in the same sequence, the figures for `Nc1ccc(-c2ccccc2)cc1NC(=O)c1ccc2nn(CCN3CCOCC3)cc2c1` [N-(4-amino-[1,1′-biphenyl]-3-yl)-2-(2-morpholinoethyl)-2H-indazole-5-carboxamide] were 23 nM, 11 nM and 477 nM.
Consider `Nc1ccc(-c2ccccc2)cc1NC(=O)c1ccc2c(c1)cc(C1CC1)n2CCN1CCOCC1` [N-(4-amino-[1,1′-biphenyl]-3-yl)-2-cyclopropyl-1-(2-morpholinoethyl)-1H-indole-5-carboxamide], for which the values for the IC50 in experiment [1] (Table 2), in experiment [2] (Table 2) and in experiment [4] (Table 2) were 70 nM, 15 nM and 689 nM, respectively.
The matching figures for `COCCn1cc(C2CC2)c2cc(C(=O)Nc3cc(-c4ccccc4)ccc3N)ccc21` [N-(4-amino-[1,1′-biphenyl]-3-yl)-3-cyclopropyl-1-(2-methoxyethyl)-1H-indole-5-carboxamide]: over 2000 nM, over 2000 nM and over 2000 nM.
Regarding `Nc1ccc(-c2ccccc2)cc1NC(=O)c1ccc2c(c1)c(C1CC1)cn2CCN1CCOCC1` [N-(4-amino-[1,1′-biphenyl]-3-yl)-3-cyclopropyl-1-(2-morpholinoethyl)-1H-indole-5-carboxamide], the IC50 in experiment [1] (Table 2) is 681 nM; in experiment [2] (Table 2), over 2000 nM; in experiment [4] (Table 2), 1900 nM.
The matching figures for `COCCOc1cc2ncc(C(=O)Nc3cc(-c4ccccc4)ccc3N)cc2cc1C1CC1` [N-(4-amino-[1,1′-biphenyl]-3-yl)-6-cyclopropyl-7-(2-methoxyethoxy)quinoline-3-carboxamide]: 1560 nM, over 2000 nM and over 2000 nM.
For `COCCN(C)c1cc2ncc(C(=O)Nc3cc(-c4ccccc4)ccc3N)cc2cc1C1CC1` [N-(4-amino-[1,1′-biphenyl]-3-yl)-6-cyclopropyl-7-((2-methoxyethyl)(methyl)amino)quinoline-3-carboxamide], the IC50 is 1220 nM in experiment [1] (Table 2), over 2000 nM in experiment [2] (Table 2) and over 2000 nM in experiment [4] (Table 2).
For the compound `Nc1ccc(-c2ccccc2)cc1NC(=O)c1cnc2c(C3CC3)c(NCc3ccccc3)ccc2c1` [N-(4-amino-[1,1′-biphenyl]-3-yl)-7-(benzylamino)-8-cyclopropylquinoline-3-carboxamide], the IC50 in experiment [1] (Table 2) was over 2000 nM; in experiment [2] (Table 2), 652 nM. For the same compound, the “IC50 HDAC3” value in experiment [4] (Table 2) was “HDAC3 = No inhibition”.
For `Nc1ccc(-c2ccccc2)cc1NC(=O)c1cnc2c(N3CCNCC3)c(C3CC3)ccc2c1` [N-(4-amino-[1,1′-biphenyl]-3-yl)-7-cyclopropyl-8-(piperazin-1-yl)quinoline-3-carboxamide], the figures for the IC50 in experiment [1] (Table 2), in experiment [2] (Table 2) and in experiment [4] (Table 2) were 56 nM, 103 nM and 257 nM, respectively.
For the compound `Nc1ccc(-c2ccccc2)cc1NC(=O)c1cnc2c(C3CC3)c(N3CCNCC3)ccc2c1` [N-(4-amino-[1,1′-biphenyl]-3-yl)-8-cyclopropyl-7-(piperazin-1-yl)quinoline-3-carboxamide], the half-maximal inhibitory concentration (IC50) in experiment [1] (Table 2) came to 15 nM; in experiment [2] (Table 2), 7.8 nM; in experiment [4] (Table 2), 164 nM.
Regarding `Nc1ccc(-c2ccccc2)cc1NC(=O)c1cnc2c(C3CC3)c(N3CCOCC3)ccc2c1` [N-(4-amino-[1,1′-biphenyl]-3-yl)-8-cyclopropyl-7-morpholinoquinoline-3-carboxamide], the values for the IC50 in experiment [1] (Table 2), in experiment [2] (Table 2) and in experiment [4] (Table 2) were 799 nM, 295 nM and over 2000 nM, respectively.

One may read the IC50 as the concentration needed to halve the response being measured.
